# Test results as given in patent US20140329766A1, “Prophylactic Compositions for Management of Microbial Infections in Patients with Brain Injury” (UTI LIMITED PARTNERSHIP, priority 2011, published 2014).
# What was measured:
# [1] = Brain infarct size after MCAO; format: in vivo, mice; conditions: post-ischemic mice, single dose of α-GalCer (FIG. 45A)
# Experimental: Male mice of 8-12 weeks old were anesthetized by intraperitoneal injection of a mixture of 10 mg/kg xylazine hydrochloride (MTC Pharmaceuticals, Cambridge, ON) and 200 mg/kg ketamine hydrochloride (Rogar/STB, London, ON). Body temperature was maintained at 37° C. using a heating pad and temperature regulator with rectal probe. Mice were randomly divided into 2 groups: (i) sham-operated, and (ii) MCAO-operated. All surgical instruments were sterilized before the surgery. Before any incision, the area was swabbed with ethanol. To induce MCAO, a 10-mm incision was made on the right-hand side of the neck. Then, the common carotid artery, external carotid artery, and internal carotid artery were dissected free. The external carotid artery was further dissected distally, then coagulated and cut to serve as a stump. After applying temporary clamps at the common carotid artery and internal carotid artery, a monofilament with a silicon coating diameter of 0.21-0.23 mm (Doccol Corporation, Redlands, Calif., USA) was inserted into the stump of the external carotid artery. The monofilament then advanced a defined distance (12 mm) so that the distal end of the monofilament came to rest across the origin of the MCA. The stump of external carotid artery was tied off. The wound on the neck of the mouse was sutured and the mouse was then transferred onto a heat pad to maintain its body temperature at 37° C. After 30 mins of occlusion, the monofilament was withdrawn to allow reperfusion to occur. The animal then recovered from the anaesthesia. Rehydration of the mice was performed every 4 h with a subcutaneous injection of electrolytes and glucose. Food pellets softened with water were placed in the cage after surgery as the mice recovered, and access to water was provided. Sham-operated animals were subjected to the initial anaesthetic and neck incision only. The animals were then allowed to recover from anaesthetic. All animals were put onto a 37° C. heat pad, post-surgery, to recover from anaesthesia until euthanized.
# [2] = system: hepatic iNKT cells; assay: Spinning disk confocal intravital microscopy of the liver: crawling behaviour of GFP+ (iNKT) cells; format: in vivo, mice; conditions: Cxcr6gfp/+ mice without MCAO (FIGS. 31A, 31B)
# Experimental: Murine liver intravital microscopy was performed as taught by Wong et al. (1997, A minimal role for selectins in the recruitment of leukocytes into the inflamed liver microvasculature. J. Clin. Invest. 99: 2782). Briefly, the tail vein of the anesthetized mice was cannulated to administer fluorescently labeled antibodies and/or additional anesthetic as required. Body temperature was maintained at 37° C. using an infrared heat lamp. Mice were placed in a right lateral position on an adjustable microscope stage. A lateral abdominal incision along the costal margin to the midaxillary line was made to exteriorize the liver, and all exposed tissues were moistened with saline-soaked gauze to prevent dehydration.
# Cells were tracked using ImageJ software version 1.45 (NIH at http://rsb.info.nih.gov/ij/). Time-lapse videos exported from Volocity were imported as .mov file, and then converted to 8-bit grayscale. Fluorescent cells were adjusted using threshold control, and noise particles less than 2.0 pixels were removed by filter. Movement of cells was measured using manual tracking, and was calculated for each track using ImageJ output spreadsheets. The cell velocity was expressed in distance (μm) per time (min). 30-40 tracks from 10 mins videos of each animal in each experimental group were analyzed.
# Excised livers were prepared for in vivo microscopic observation. Briefly, the liver was placed on the pedestal of an inverted microscope and the liver surface was then covered with a small piece of saline-soaked KimWipe to hold the organ in position. The liver microvasculature was visualized using a spinning-disk confocal microscopy and images were acquired with an Olympus IX81 inverted microscope using a ×10/0.40 UplanFL N objective. The microscope was equipped with a confocal light path (WaveFx, Quorum, Guelph, ON, CA) based on a modified Yokogawa CSU-10 head (Yokogawa Electric Corporation, Tokyo, Japan). Cxcr6^gfp/+ mice were used to visualize hepatic iNKT cells. Laser excitation wavelengths (Cobolt, Stockholm, Sweden) were used in rapid succession and visualized with the appropriate long-pass filters (Semrock, Rochester, N.Y.). Typical exposure time for each excitation wavelength was 300 milli-seconds. A 512×512 pixel back-thinned electron-multiplying charge-coupled device camera (C9100-13, Hamamatsu, Bridgewater, N.J.) was used for fluorescence detection. Volocity Acquisition software (Improvision) was used to drive the confocal microscope. […] Behaviors of iNKT cells in the hepatic microvasculature were assessed.
# Wildtype mice underwent the MCAO procedure as previously described in Example 1. […] The crawling behaviours of crawling GFP+ cells in livers from sham-operated control mice and post-ischemic mice were observed and quantified using the methods disclosed in Example 2.
# [3] = system: IFNγ; assay: Serum cytokine IFNγ level in peripheral blood (Luminex); format: in vivo; conditions: post-ischemic mice 24 h after MCAO; α-GalCer 2 μg/mouse i.v. 2 h after MCAO (FIG. 43A)
# Experimental: Levels of the cytokine IFNγ present in peripheral blood were determined by collecting blood samples by cardiac puncture, which were then allowed to clot at room temperature for at least 30 mins. The samples were then centrifuged at 400×g for 10 mins for the retrieval of serum. The serum samples were analyzed for the cytokine IFNγ by using a multiplex mouse cytokine/chemokine kit, and a Luminex 200 apparatus according to manufacturer's instructions. The data were analyzed with the StarStation V.2.3 software from Applied Cytometry Systems (UK).
# [4] = Alanine transaminase (ALT) activity assay in peripheral blood; format: in vivo; conditions: post-ischemic mice after the single dose of α-GalCer (FIG. 45B)
# Experimental: Separate groups of control sham-operated mice received a single-dose administration of the α-GalCer compositions following the procedures, both as outlined in Example 7 (one composition/one group of four mice). Also, separate groups of post-ischemic mice received a single-dose administration of the α-GalCer compositions about 2 h after the MCAO events, following the procedures as outlined in Example 7 (one composition/one group of four mice). All animals were euthenized 24 h after MCAO events, and their peripheral blood was harvested. The levels of alanine transaminase (ALT) in the samples were determined with an ALT activity assay following the manufacturer's instructions to determine the rates of oxidation of NADH to NAD^+.
# [5] = system: tumors; conditions: cited from earlier work
smiles,measurement,setting,value
"CCCCCCCCCCCCCCCCCCCCCCCCCCC(=O)N[C@@H](COC1OC(CO)C(O)C(O)C1O)[C@H](O)[C@H](O)CCCCCCCCCCCCCC (stereo partly drawn) [α-GalCer, α-galactosylceramide]",infarct sizes,[1],no notable differences
same,crawling behaviour of liver iNKT cells after administration of the activator,[2],cessation of iNKTcells
same,systemic levels of endogenous IFN-γ,[3],significantly increased
same,liver enzyme (ALT) levels within the blood,[4],no significant difference
same,growth of tumors,[5]; liver metastatic models,suppressed
same,survival term of the tumor-bearing mice,[5]; liver metastatic models,prolonged
same,anti-tumor activity,[5]; murine in vivo experiments incl. subcutaneous implanted model and liver and lung metastatic models,potent anti-tumor activity
